Structures can show the parent of a compound that is named as a salt. Where two headings read alike, the source gives them in different places.
Columns and labels:
FLT3 = target: T1, FLT3 (Homo sapiens, UniProt P36888); assay: Binding constant (Kd) measurement, phage-displayed kinase competition binding assay, FLT3
T1 construct: made in house
T1 sequence (P36888 27-993): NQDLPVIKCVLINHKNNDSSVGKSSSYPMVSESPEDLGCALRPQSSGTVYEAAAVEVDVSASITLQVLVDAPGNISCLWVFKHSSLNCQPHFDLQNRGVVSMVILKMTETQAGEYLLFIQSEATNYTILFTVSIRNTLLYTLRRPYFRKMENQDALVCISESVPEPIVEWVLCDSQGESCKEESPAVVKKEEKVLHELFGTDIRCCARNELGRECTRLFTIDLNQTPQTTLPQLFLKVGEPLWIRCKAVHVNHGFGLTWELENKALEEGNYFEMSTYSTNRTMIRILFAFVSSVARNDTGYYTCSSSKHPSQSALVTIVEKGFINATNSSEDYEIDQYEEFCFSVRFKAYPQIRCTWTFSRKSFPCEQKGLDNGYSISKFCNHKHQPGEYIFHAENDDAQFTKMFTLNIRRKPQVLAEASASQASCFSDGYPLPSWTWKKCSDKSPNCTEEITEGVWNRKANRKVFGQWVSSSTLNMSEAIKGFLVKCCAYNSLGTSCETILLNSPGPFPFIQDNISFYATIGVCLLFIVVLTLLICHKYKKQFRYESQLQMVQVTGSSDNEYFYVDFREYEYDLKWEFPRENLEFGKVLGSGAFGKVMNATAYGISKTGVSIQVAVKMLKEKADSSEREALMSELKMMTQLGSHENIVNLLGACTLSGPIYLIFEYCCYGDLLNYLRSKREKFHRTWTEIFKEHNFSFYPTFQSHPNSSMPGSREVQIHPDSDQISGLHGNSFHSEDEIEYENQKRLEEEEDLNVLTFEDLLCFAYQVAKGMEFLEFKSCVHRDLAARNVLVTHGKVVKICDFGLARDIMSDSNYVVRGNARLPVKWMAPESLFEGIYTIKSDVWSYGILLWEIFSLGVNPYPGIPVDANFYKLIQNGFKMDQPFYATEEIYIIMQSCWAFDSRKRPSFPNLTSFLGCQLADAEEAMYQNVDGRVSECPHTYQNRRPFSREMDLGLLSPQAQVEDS
Method: (§1) Binding Constant (Kd) Measurements for Small-Molecule-Kinase Interactions
(§2) By testing across a large class of protein kinases, specificity of the kinase inhibitors provided herein is also determined. The components of the assays include various human kinases expressed as fusions to T7 bacteriophage particles and immobilized ligands that bind to the ATP site of the kinases. […] If the test compound binds the kinase, it competes with the immobilized ligand and prevents binding to the solid support. […] The results are read out by quantitating the amount of fusion protein bound to the solid support, which is accomplished by either traditional phage plaque assays or by quantitative PCR (qPCR) using the phage genome as a template.

MV4-11 cells = assay: Cellular proliferation assay (MTS), MV4-11; format: cell-based; conditions: Homo sapiens
Excerpt: Cellular Proliferation Assay
Cancer cell viability and proliferation can be evaluated using a tetrazolium salt reduction cell-based assay. In viable cells, this colorimetric assay can measure mitochondrial reduction of a tetrazolium component (MTS) into an […] formazan product.
This cell line was used to determine the ability of the compounds provided herein to inhibit Flt3 in intact cells. The RS4-11 cell line, which expresses the wild-type (WT) receptor, is also used as a control to verify the test compound's ability to inhibit the FLT3 receptor containing the ITD mutation.
MV4-11 cells were plated at 10,000 cells per well in DMEM medium with 0.5% serum. RS4-11 cells were plated at 20,000 cells per well in RPMI with 0.5% serum. […] An aliquot from each well of the compound plate was transferred to the plated cells and then incubated @ 37° C. in 5% CO2 (for 3 days for the MV4-11 cells, 2 days for the RS4-11 cells).
MTS tetrazolium compound (Owen's reagent) was thawed in a H2O bath. 20 μl of MTS tetrazolium was added to each well of optical plate and the cells were incubated @ 37° C. in 5% CO2 for 2 hours.

KIT = target: T2, KIT (Homo sapiens, UniProt P10721); assay: Binding constant (Kd) measurement, phage-displayed kinase competition binding assay, KIT
T2 construct: made in house
Method: as §1, §2

CSF1R = target: T3, CSF1R (Homo sapiens, UniProt P07333); assay: Binding constant (Kd) measurement, phage-displayed kinase competition binding assay, CSF1R
T3 construct: made in house
Method: as §1, §2

[1] = read-out: Binding Assay FLT3 Kd
[2] = MV4-11 cells, 72 hour incubation, MTS, read-out: Cellular Assay MV-proliferation IC50
[3] = MV4-11, 72 h, read-out: Cellular Assay MV-proliferation IC50 (nM)

T2 sequence (P10721 26-976): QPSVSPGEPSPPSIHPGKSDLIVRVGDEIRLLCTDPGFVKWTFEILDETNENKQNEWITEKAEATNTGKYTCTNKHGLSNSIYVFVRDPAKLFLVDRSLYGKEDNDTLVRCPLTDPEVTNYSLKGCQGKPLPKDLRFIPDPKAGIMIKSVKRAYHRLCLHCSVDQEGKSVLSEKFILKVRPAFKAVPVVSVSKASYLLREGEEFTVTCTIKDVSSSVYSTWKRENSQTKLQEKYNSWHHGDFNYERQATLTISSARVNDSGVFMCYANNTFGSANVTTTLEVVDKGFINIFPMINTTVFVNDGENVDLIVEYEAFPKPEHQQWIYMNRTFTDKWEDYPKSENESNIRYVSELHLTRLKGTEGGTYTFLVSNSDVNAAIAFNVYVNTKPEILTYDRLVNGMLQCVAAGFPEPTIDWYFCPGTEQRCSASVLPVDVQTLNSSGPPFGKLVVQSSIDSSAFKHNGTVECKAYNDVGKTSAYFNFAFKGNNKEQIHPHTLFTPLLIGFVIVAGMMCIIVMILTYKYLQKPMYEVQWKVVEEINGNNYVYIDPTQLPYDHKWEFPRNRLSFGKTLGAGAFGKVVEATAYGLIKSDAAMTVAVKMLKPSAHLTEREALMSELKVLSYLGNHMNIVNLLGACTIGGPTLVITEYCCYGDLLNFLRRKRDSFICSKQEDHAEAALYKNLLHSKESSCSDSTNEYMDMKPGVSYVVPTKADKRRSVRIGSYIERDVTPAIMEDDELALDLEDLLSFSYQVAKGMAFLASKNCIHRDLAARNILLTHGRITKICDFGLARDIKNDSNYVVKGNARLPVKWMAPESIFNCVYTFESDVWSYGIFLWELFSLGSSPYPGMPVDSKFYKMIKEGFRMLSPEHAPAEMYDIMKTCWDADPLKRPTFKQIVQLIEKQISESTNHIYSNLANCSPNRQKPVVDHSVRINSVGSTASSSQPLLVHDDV
T3 sequence (P07333 20-972): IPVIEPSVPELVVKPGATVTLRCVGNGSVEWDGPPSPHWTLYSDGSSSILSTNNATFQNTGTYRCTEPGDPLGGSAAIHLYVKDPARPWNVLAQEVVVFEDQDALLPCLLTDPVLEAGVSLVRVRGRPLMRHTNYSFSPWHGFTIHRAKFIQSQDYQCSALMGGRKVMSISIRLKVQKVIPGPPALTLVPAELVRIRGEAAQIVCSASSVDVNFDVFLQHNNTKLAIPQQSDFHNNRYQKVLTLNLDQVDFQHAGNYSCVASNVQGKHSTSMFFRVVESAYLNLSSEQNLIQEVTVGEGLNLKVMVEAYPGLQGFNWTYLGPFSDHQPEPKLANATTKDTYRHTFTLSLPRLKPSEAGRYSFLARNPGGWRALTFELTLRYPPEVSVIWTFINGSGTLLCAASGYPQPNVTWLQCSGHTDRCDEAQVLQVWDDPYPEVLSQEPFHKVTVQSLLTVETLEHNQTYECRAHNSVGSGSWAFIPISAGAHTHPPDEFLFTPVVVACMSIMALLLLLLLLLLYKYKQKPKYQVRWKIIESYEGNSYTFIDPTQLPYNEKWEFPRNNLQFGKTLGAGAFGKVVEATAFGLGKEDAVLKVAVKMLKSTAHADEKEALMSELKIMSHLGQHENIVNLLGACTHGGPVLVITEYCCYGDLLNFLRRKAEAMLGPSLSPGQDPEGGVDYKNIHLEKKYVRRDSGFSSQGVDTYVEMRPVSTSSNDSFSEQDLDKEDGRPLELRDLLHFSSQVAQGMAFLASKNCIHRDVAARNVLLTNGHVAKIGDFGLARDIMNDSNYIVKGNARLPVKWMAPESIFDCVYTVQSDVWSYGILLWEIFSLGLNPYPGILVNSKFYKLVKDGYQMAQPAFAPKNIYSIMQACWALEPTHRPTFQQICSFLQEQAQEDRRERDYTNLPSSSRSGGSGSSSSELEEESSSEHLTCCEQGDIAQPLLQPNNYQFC

Structure (SMILES)	Kd (FLT3; [1]) [nM]	IC50 (MV4-11 cells; [2]) [nM]	Kd (KIT) [nM]	Kd (CSF1R) [nM]	Kd (FLT3) [nM]	IC50 (MV4-11 cells; [3]) [nM]
CC(C)(C)c1cc(NC(=O)Nc2ccc(-c3cn4c(n3)sc3ccccc34)cc2)no1 [Compound A1]	< 10	< 10				
CC(C)(C)c1cc(NC(=O)Nc2ccc(-c3cn4c(n3)sc3cc(F)ccc34)cc2)no1 [Compound A2, 1-(5-tert-butyl-isoxazol-3-yl)-3-[4-(7-fluoro-benzo[d]imidazo[2,1-b]thiazol-2-yl)-phenyl]-urea]		< 10			10 to 100	
Cc1ccc2c(c1)sc1nc(-c3ccc(NC(=O)Nc4cc(C(C)(C)C)on4)cc3)cn12 [Compound A3, 1-(5-tert-butyl-isoxazol-3-yl)-3-[4-(7-methyl-benzo[d]imidazo[2,1-b]thiazol-2-yl)-phenyl]-urea]		< 10			< 10	
CC(C)(C)c1cc(NC(=O)Nc2ccc(-c3cn4c(n3)sc3cc(O)ccc34)cc2)no1 [Compound A4, 1-(5-tert-butyl-isoxazol-3-yl)-3-[4-(7-hydroxy-benzo[d]imidazo[2,1-b]thiazol-2-yl)-phenyl]-urea]	< 10	< 10				
COc1ccc2c(c1)sc1nc(-c3ccc(NC(=O)Nc4cc(C(C)(C)C)on4)cc3)cn12 [Compound A5, 1-(5-tert-butyl-isoxazol-3-yl)-3-[4-(7-methoxy-benzo[d]imidazo[2,1-b]thiazol-2-yl)-phenyl]-urea]		< 10			< 10	
CC(C)(C)c1cc(NC(=O)Nc2ccc(-c3cn4c(n3)sc3cc(N5CCOCC5)ccc34)cc2)no1 [Compound A6, 1-(5-tert-Butyl-isoxazol-3-yl)-3-[4-(7-morpholin-4-yl-benzo[d]imidazo[2,1-b]thiazol-2-yl)-phenyl]-urea]		< 10			< 10	
CN1CCN(c2ccc3c(c2)sc2nc(-c4ccc(NC(=O)Nc5cc(C(C)(C)C)on5)cc4)cn23)CC1 [Compound A7, 1-(5-tert-butyl-isoxazol-3-yl)-3-{4-[7-(4-methyl-piperazin-1-yl)-benzo[d]imidazo[2,1-b]thiazol-2-yl]-phenyl}-urea]	< 10	< 10				
CC(C)(C)c1cc(NC(=O)Nc2ccc(-c3cn4c(n3)sc3cc(OCCN5CCOCC5)ccc34)cc2)no1 [Compound B1, N-(5-tert-Butyl-isoxazol-3-yl)-N′-{4-[7-(2-morpholin-4-yl-ethoxy)imidazo[2,1-b][1,3]benzothiazol-2-yl]phenyl}urea]						< 10
CCN(CC)CCOc1ccc2c(c1)sc1nc(-c3ccc(NC(=O)Nc4cc(C(C)(C)C)on4)cc3)cn12 [Compound B2, 1-(5-tert-Butyl-isoxazol-3-yl)-3-{4-[7-(2-diethylamino-ethoxy)-benzo[d]imidazo[2,1-b]thiazol-2-yl]-phenyl}-urea]		< 10	< 10		< 10	
CC(C)(C)c1cc(NC(=O)Nc2ccc(-c3cn4c(n3)sc3cc(OCCN5CCCCC5)ccc34)cc2)no1 [Compound B3, 1-(5-tert-Butyl-isoxazol-3-yl)-3-{4-[7-(2-piperidin-1-yl-ethoxy)-benzo[d]imidazo[2,1-b]thiazol-2-yl]-pheny}-urea hydrochloride]	< 10	< 10	< 10			
CN1CCN(CCOc2ccc3c(c2)sc2nc(-c4ccc(NC(=O)Nc5cc(C(C)(C)C)on5)cc4)cn23)CC1 [Compound B4, 1-(5-tert-Butyl-isoxazol-3-yl)-3-(4-{7-[2-(4-methyl-piperazin-1-yl)-ethoxy]-benzo[d]imidazo[2,1-b]thiazol-2-yl}-phenyl)-urea hydrochloride]	< 10	< 10	< 10			
CC(C)(C)c1cc(NC(=O)Nc2ccc(-c3cn4c(n3)sc3cc(OC(=O)[C@@H]5CCCN5)ccc34)cc2)no1 [Compound B6, (2S)-pyrrolidine-2-carboxylic acid 2-{4-[3-(5-tert-butyl-isoxazol-3-yl)-ureido]-phenyl}-benzo[d]imidazo[2,1-b]thiazol-7-yl ester]		< 10	10 to 100		< 10	
CN1CCN(CCCOc2ccc3c(c2)sc2nc(-c4ccc(NC(=O)Nc5cc(C(C)(C)C)on5)cc4)cn23)CC1 [Compound B9, 1-(5-tert-Butyl-isoxazol-3-yl)-3-(4-{7-[3-(4-methyl-piperazin-1-yl)-propoxy]-benzo[d]imidazo[2,1-b]thiazol-2-yl}-phenyl)-urea]	< 10	< 10	10 to 100			
CCOC(=O)Cc1ccc2c(c1)sc1nc(-c3ccc(NC(=O)Nc4cc(C(C)(C)C)on4)cc3)cn12 [Compound C1, Ethyl 2-{2-[4-({[(5-tert-Butylisoxazol-3-yl)amino]carbonyl}amino)phenyl]imidazo[2,1-b][1,3]benzothiazol-7-yl}acetate]		< 10	< 10		< 10	
CC(C)(C)c1cc(NC(=O)Nc2ccc(-c3cn4c(n3)sc3cc(CC(=O)O)ccc34)cc2)no1 [Compound C2, 2-{2-[4-({[(5-tert-Butylisoxazol-3-yl)amino]carbonyl}amino)phenyl]imidazo[2,1-b][1,3]benzothiazol-7-yl}acetic acid]		< 10	< 10		< 10	
CCN1CCN(C(=O)Cc2ccc3c(c2)sc2nc(-c4ccc(NC(=O)Nc5cc(C(C)(C)C)on5)cc4)cn23)CC1 [Compound C17, 1-(5-tert-butyl-isoxazol-3-yl)-3-(4-{7-[2-(4-ethyl-piperazin-1-yl)-2-oxo-ethyl]benzo[d]imidazo[2,1-b]thiazol-2-yl}-phenyl)-urea hydrochloride]			< 10	10 to 100		< 10

Continued, in another order:

Kd (FLT3; [1]) [nM]	IC50 (MV4-11 cells; [2]) [nM]	Kd (KIT) [nM]	Kd (CSF1R) [nM]	Structure (SMILES)	Kd (FLT3) [nM]	IC50 (MV4-11 cells; [3]) [nM]
	< 10	< 10	10 to 100	CC(C)(C)c1cc(NC(=O)Nc2ccc(-c3cn4c(n3)sc3cc(CC(=O)NCCN5CCCC5)ccc34)cc2)no1 [Compound C15, 2-(2-{4-[3-(5-tert-butyl-isoxazol-3-yl)-ureido]-phenyl}-benzo[d]imidazo[2,1-b]thiazol-7-yl)-N-(2-pyrrolidin-1-yl-ethyl)-acetamide hydrochloride]		
	< 10	< 10	10 to 100	CCN(CC)CCNC(=O)Cc1ccc2c(c1)sc1nc(-c3ccc(NC(=O)Nc4cc(C(C)(C)C)on4)cc3)cn12 [Compound C16, 2-(2-{4-[3-(5-tert-butyl-isoxazol-3-yl)-ureido]-phenyl}-benzo[d]imidazo[2,1-b]thiazol-7-yl)-N-(2-diethylamino-ethyl)-acetamide hydrochloride]		
	< 10	< 10	10 to 100	CC(C)(C)c1cc(NC(=O)Nc2ccc(-c3cn4c(n3)sc3cc(C(=O)NCCN5CCOCC5)ccc34)cc2)no1 [Compound C19, 2-{4-[3-(5-tert-butyl-isoxazol-3-yl)-ureido]-phenyl}imidazo[2,1-b][1,3]benzothiazole-7-carboxylic acid (2-morpholin-4-yl-ethyl)-amide hydrochloride]		
	< 10	< 10		CCN1CCN(CCCc2ccc3c(c2)sc2nc(-c4ccc(NC(=O)Nc5cc(C(C)(C)C)on5)cc4)cn23)CC1 [Compound D1, N-(5-tert-Butyl-isoxazol-3-yl)-N′-(4-{7-[3-(4-ethyl-piperazin-1-yl)propyl]imidazo[2,1-b][1,3]benzothiazol-2-yl}phenyl)urea hydrochloride]		

Source: patent US8921546B2, “Imidazolothiazole compounds for the treatment of disease” (Ambit Biosciences Corporation, priority 2006, dated 2014)
